Test results from paper PMC11547375, “Peptide Dimerization as a Strategy for the Development of Antileishmanial Compounds” (Molecules, 2024).
Read-outs that look alike come from different tables or passages of the source. Positions of bridges follow the written chain, without caps; N, C: chain ends. Residues, ends and D or L forms follow the SMILES beside them. Chains are numbered I, II in the order given. No end group written: not given here.

How the values were obtained:
LmCPB2.8ΔCTE (CPB) = LmCPB2.8ΔCTE (CPB) (Leishmania mexicana, UniProt P36400); conditions: cited from earlier work
Excerpt: (§1) In addition to the membrane, peptides may have other therapeutic targets in Leishmania. Enzymes are essential for functional integrity and virulence, highlighting the fundamental role of cysteine proteases in the infectious process, so their inhibition can have high therapeutic potential, enabling the design of new drugs. In L. mexicana, three cysteine protease genes were identified as virulence factors: lmcpa, lmcpb, and lmcpc. Of these, lmcpb encodes a protein product like cathepsin L and is the most abundant in the amastigote form of the parasite, so this enzyme is an i ...

[1] = Carboxyfluorescein leakage from POPC-Chol (4:1) vesicles mimicking host membrane; conditions: POPC–Chol (4:1) LUVs, peptide tested at 1 and 5 µmol L^−1
Procedure: Large unilamellar vesicles (LUVs) composed of POPC (1-palmitoyl-2-oleoyl-sn-glycero-3-phosphatidylcholine) and cholesterol (Chol) (4:1), or POPC, POPS (1-palmitoyl-2-oleoyl-sn-glycero-3-serine), and ergosterol (Erg) (16:3:1) were prepared according to the methods described by Lorenzón et al. [34]. […] We employed a Hitachi U-2000 spectrophotometer (TSHa) (Hitachi, Tokyo, Japan) or a Fluorolog-3 FL3-122 spectrofluorometer (Horiba Jobin Yvon, Glasgow, UK) ((TSHa)2K) for analyses.

[2] = POPC–POPS–Erg (16:3:1) LUVs
Procedure: To evaluate the effect of monomeric and dimeric peptides on the lipid membrane and relate it to the mechanism of action, vesicle permeabilization studies were carried out for evaluating the possible mechanisms on membrane. The leakage assays were carried out with carboxyfluorescein (CF) internalized in the mimetic membranes. The vesicles of POPC–Chol (4:1) and POPC–POPS (phosphatidylserine)–ergosterol (16:3:1) were employed. These mimetic membranes were designed considering the compositions of phospholipids and steroids in the host membrane and in the Leishmania membrane, respectively. The constitution of the cell membrane of Leishmania varies according to the morphology of the parasite and its stage of development, but is more negative than the cell membranes of mammals, which allow for cationic AMPs to bind more easily. Our studies were based on the membrane of the promastigote form, which is characterized by the presence of mainly phosphatidylcholine, phosphatidylethanolamine, phosphatidylinositol, phosphatidylserine, and ergosterol, in addition to diglycerides and glycolipids containing mannose and galactose. In the amastigote form of Leishmania, there is a higher concentration of fatty acids and cholesterol, while triglycerides and ergosterol decrease during the transition from promastigotes to amastigotes. In addition, the main phospholipids found are sphingomyelin and phosphatidylserine, with lower proportions of phosphatidylinositol and lysophosphatidylethanolamine.
Large unilamellar vesicles (LUVs) composed of POPC (1-palmitoyl-2-oleoyl-sn-glycero-3-phosphatidylcholine) and cholesterol (Chol) (4:1), or POPC, POPS (1-palmitoyl-2-oleoyl-sn-glycero-3-serine), and ergosterol (Erg) (16:3:1) were prepared according to the methods described by Lorenzón et al.. […] We employed a Hitachi U-2000 spectrophotometer (TSHa) (Hitachi, Tokyo, Japan) or a Fluorolog-3 FL3-122 spectrofluorometer (Horiba Jobin Yvon, Glasgow, UK) ((TSHa)2K) for analyses.

[3] = system: L. mexicana promastigotes; experiment: Membrane damage by flow cytometry with propidium iodide; assay type: cell-based, Leishmania mexicana; conditions: 1 × IC50; promastigotes 5 × 10^6 cells mL^−1, PI 80 µg mL^−1 20 min; given in Figure 11
Procedure: The mechanism of action of the peptides on the membrane was also evaluated by flow cytometry using propidium iodide. Flow cytometry has been considered more reliable for studies of cell susceptibility because it provides intrinsic information about cells, such as size and complexity. The use of fluorochromes allows for the evaluation of a wide range of physiological or morphological parameters, such as membrane integrity, pH, membrane potential, and viability. The results presented here (Figure 11) are expressed as the fluorescence intensity of the PI-labeled L. mexicana cells, considering that the damage caused to the parasite membrane facilitated the entry of PI into the cell nucleus.
For flow cytometry assays, the promastigotes of L. mexicana were grown in Schneider medium (Sigma) supplemented with inactivated fetal bovine serum. […] After incubation, the promastigotes were washed twice with PBS and labeled with propidium iodide (PI) (80 μg mL^−1) for 20 min, followed by centrifugation at 2000× g for 10 min and resuspension in 500 μL of PBS. The samples were analyzed using an Accuri C6 flow cytometer (BD Biosciences, Franklin Lakes, NJ, USA) and proprietary software, with at least 50,000 events effectively included in each analysis. All the experiments were performed using biological duplicates in triplicate at each experimental point.

[4] = system: L. mexicana intracellular amastigotes; experiment: Infection index, L. mexicana intracellular amastigotes in macrophages; assay type: cell-based, Leishmania mexicana; conditions: 24 h of treatment
Procedure: During the infection process, the amastigotes replicated in macrophages are transmitted to healthy cells, leading to the amplification of infection; the greater the parasitic load is, the worse the infection is. The infection index (percentage of infected cells x number of parasites per infected cell) was used to evaluate this transmission. In this work, the infection index was determined using L. mexicana for 24 h (Figure 6) and 48 h of treatment (Figure 7).
The L. amazonensis promastigotes (MPRO/BR/1972/M1841-LV-79) were grown in LIT culture medium, while the L. mexicana promastigotes (MNYC/BZ/62/M379) were cultivated in Schneider’s medium (Sigma-Aldrich, St. Louis, MO, USA), supplemented with 10% heat-inactivated fetal bovine serum (FBS; Gibco/Invitrogen, Waltham, MA, USA) at 28 °C until reaching the mid-log phase of growth. Macrophages were sourced from the peritoneal cavity of Swiss mice using the methodology outlined by de Almeida et al.. Anti-promastigote and anti-amastigote assays of L. mexicana and L. amazonensis and their cytotoxic activity were conducted as previously described. IC50 is the concentration capable of killing 50% of the parasites. […] Cytotoxicity for the host cells and the protozoan species was compared and expressed as the selectivity index (SI), calculated as the ratio of the CC50 for macrophages to the IC50 for the protozoan species.

[5] = system: L. amazonensis intracellular amastigotes; experiment: Infection index, L. amazonensis intracellular amastigotes in macrophages; assay type: cell-based, Leishmania amazonensis; conditions: 24 h of treatment
[6] = system: L. mexicana promastigotes; experiment: Membrane damage by fluorescence microscopy (PI/Hoechst); assay type: cell-based, Leishmania mexicana; conditions: 1.25 and 2.5 µmol L^−1, 24 h; ratio PI-labeled / Hoechst-labeled parasites
Procedure: Fluorescence microscopy assays were also employed to investigate the mechanism of action of the peptides. […] In addition, the ratio of PI-labeled cells to Hoechst-labeled cells was used to determine the percentage of cells that had suffered some type of membrane damage. Images were also obtained after the treatments of the promastigote form with the TSHa peptide, the dimeric (TSHa)2K peptide, and the Amp B control drug at concentrations of 2.5 and 1.25 µmol L^−1 after 2 and 24 h to evaluate the mechanism of action of these molecules and whether the time of exposure to the compounds might affect their activity. […] The results for the other treatments are provided in the Supplementary Materials (Figures S1–S10).
For fluorescence microscopy, assays were carried out with promastigotes of L. mexicana in the exponential phase of growth in passage P3 at a concentration of 1 × 10^7 cells mL^−1. Treatments were performed with Amp B and the peptides at concentrations of 1.25 or 2.5 μmol L^−1 for 2 or 24 h, respectively. The parasites were labeled with 5 μg mL^−1 of Hoechst solution (stock: 1 mg mL^−1) for 5 min, followed by the addition of PI (1 mg mL^−1) to a final concentration of 40 μg mL^−1 and incubation for 20 min at room temperature. […] Images were acquired with a fluorescence microscope (Nikon DS-R11,10 Nikon Instruments Inc., Melville, NY, USA) at 40× magnification. […]

[7] = system: L. mexicana promastigotes; experiment: microbe, parasite or virus in culture; assay type: cell-based, Leishmania mexicana; conditions: Leishmania mexicana, ± standard deviation, SD, read-out: IC50 Promastigote
Procedure: (§2) The L. amazonensis promastigotes (MPRO/BR/1972/M1841-LV-79) were grown in LIT culture medium, while the L. mexicana promastigotes (MNYC/BZ/62/M379) were cultivated in Schneider’s medium (Sigma-Aldrich, St. Louis, MO, USA), supplemented with 10% heat-inactivated fetal bovine serum (FBS; Gibco/Invitrogen, Waltham, MA, USA) at 28 °C until reaching the mid-log phase of growth. Macrophages were sourced from the peritoneal cavity of Swiss mice using the methodology outlined by de Almeida et al.. Anti-promastigote and anti-amastigote assays of L. mexicana and L. amazonensis and their cytotoxic activity were conducted as previously described. IC50 is the concentration capable of killing 50% of the parasites. The drug concentration that inhibited 50% of cell growth was denoted as the 50% cytotoxic concentration (CC50). Cytotoxicity for the host cells and the protozoan species was compared and expressed as the selectivity index (SI), calculated as the ratio of the CC50 for macrophages to the IC50 for the protozoan species.

L. mexicana amastigotes = experiment: microbe, parasite or virus in culture; assay type: cell-based, Leishmania mexicana; conditions: Leishmania mexicana, ± standard deviation, SD
Procedure: (§3) Macrophages were sourced from the peritoneal cavity of Swiss mice using the methodology outlined by de Almeida et al.. Anti-promastigote and anti-amastigote assays of L. mexicana and L. amazonensis and their cytotoxic activity were conducted as previously described. […] Cytotoxicity for the host cells and the protozoan species was compared and expressed as the selectivity index (SI), calculated as the ratio of the CC50 for macrophages to the IC50 for the protozoan species.

peritoneal macrophages = experiment: Cytotoxicity in peritoneal macrophages; assay type: cell-based; conditions: peritoneal macrophages of Swiss mice
Procedure: as §2

[8] = system: L. amazonensis promastigotes; experiment: microbe, parasite or virus in culture; assay type: cell-based, Leishmania amazonensis; conditions: Leishmania amazonensis, read-out: IC50 Promastigote
Procedure: as §2

[9] = system: L. amazonensis amastigotes; experiment: microbe, parasite or virus in culture; assay type: cell-based, Leishmania amazonensis; conditions: Leishmania amazonensis, read-out: IC50 Amastigote
Procedure: as §3

cathepsin B = conditions: cited from earlier work
Excerpt: as §1

[10] = target: LmCPB2.8ΔCTE (CPB), cysteine protease of Leishmania mexicana (L. mexicana) (UniProt P36400)

In the case of `CC(C)C[C@H](NC(=O)[C@H]1O[C@@H]1C(=O)O)C(=O)NCCCCN=C(N)N` (relative stereo) [Peptide E64, L-trans-epoxysuccinyl-leucylamido-(4-guanidino)butane], the “inhibition of Leishmania CPB, in words” value (LmCPB2.8ΔCTE (CPB)) is listed as “in the nanomolar range is a potent irreversible inhibitor”.

In the case of `CC[C@H](C)[C@H](NC(=O)CNC(=O)[C@H](CO)NC(=O)[C@H](CC(C)C)NC(=O)[C@@H](N)Cc1ccccc1)C(=O)N[C@H](C(=O)NCC(=O)N[C@@H](CCSC)C(=O)N[C@@H](CC(C)C)C(=O)NCC(=O)N[C@@H](CCCCN)C(=O)N[C@@H](CC(C)C)C(=O)N[C@@H](Cc1ccccc1)C(=O)NCCCC[C@H](NC(=O)[C@H](Cc1ccccc1)NC(=O)[C@H](CC(C)C)NC(=O)[C@H](CCCCN)NC(=O)CNC(=O)[C@H](CC(C)C)NC(=O)[C@H](CCSC)NC(=O)CNC(=O)[C@@H](NC(=O)[C@@H](NC(=O)CNC(=O)[C@H](CO)NC(=O)[C@H](CC(C)C)NC(=O)[C@@H](N)Cc1ccccc1)[C@@H](C)CC)C(C)C)C(N)=O)C(C)C` [(TSHa)2K] (I: H-FLSGIVGMLGKLFK-NH2 / II: H-FLSGIVGMLGKLF; amide I:14-II:C; N-terminus assumed), the “permeabilization of POPC–Chol vesicles, in words” value [1] is reported as “No permeabilization”, the CF release ([2]; peptide 1 µmol L^−1, fluorescence) is reported as 20% and the CF release ([2]; peptide 5 µmol L^−1, fluorescence) is reported as 45%. For the same molecule, the “V1-L gate (cells not labeled with PI)” value [3] was 52.8%, the “V1-R gate (PI-labeled cells)” value [3] was 47.2% and the “decrease of infection rate (infection index) vs untreated infected cells” value [4] was 5.5 fold. The “decrease of infection rate (infection index) vs untreated infected cells” value [5] was 3.8 fold and the “membrane damage, in words” value [6] was “caused damage to the membrane”.

For `C[C@@H]1[C@H](O)[C@@H](C)/C=C/C=C/C=C/C=C/C=C/C=C/C=C/[C@H](O[C@@H]2O[C@H](C)[C@@H](O)[C@H](N)[C@@H]2O)C[C@@H]2O[C@](O)(C[C@@H](O)C[C@@H](O)[C@H](O)CC[C@@H](O)C[C@@H](O)CC(=O)O[C@H]1C)C[C@H](O)[C@H]2C(=O)O` [Amp B, Amphotericin B], the IC50 [7] was 500 ± 200 nM, the IC50 (L. mexicana amastigotes; 24 h of treatment, read-out: IC50 Amastigote 24 h of Treatment) was 630 ± 1200 nM and the IC50 (L. mexicana amastigotes; 48 h of treatment, read-out: IC50 Amastigote 48 h of Treatment) was 630 ± 1200 nM. The “CC50 Peritoneal Macrophages” value (peritoneal macrophages; Table 1, ± standard deviation, SD) was 24000 ± 20 nM, the “CC50 Peritoneal Macrophage” value (peritoneal macrophages; Table 2) was 24000 ± 400 nM and the IC50 [8] was 700 ± 200 nM. For the same molecule, the IC50 [9] was 630 ± 20 nM, the “V1-L gate (cells not labeled with PI)” value [3] was 55.2% and the “V1-R gate (PI-labeled cells)” value [3] was 44.8%. The “membrane damage, in words” value [6] was “caused damage to the membrane”.

In the case of `Cc1ccc(C(=O)[C@@]23C(=O)OC(=O)C2N(C)[C@]2(c4ccccc4)Sc4ccccc4[C@H]32)cc1` (stereo partly drawn) [derivative of benzo[b]thiophene, (4aS,9bS,9cS)-4-methyl-9c-(4-methylbenzoyl)-4a-phenyl-4,4a,9b,9c-tetrahydro-1H-benzo[4,5]thieno[2,3-b]furo[3,4-d]pyrrole-1,3(3aH)-dione], the IC50 (LmCPB2.8ΔCTE (CPB); read-out: IC50-CEC, LmCPB2.8△CTE (CEC)) is listed as 3700 nM.

In the case of Z-Arg-Leu-Val-Gly-Ile-Val-O-methyl, the Ki (cathepsin B) is listed as 0.088 nM.

With dimeric peptide (TSHa)2K the IC50 of inhibition of the enzyme activity of CPB (LmCPB2.8ΔCTE) [10] was 3600 nM and the Inhibitory Activity at 20 μmol L^−1 (%): inhibition of the enzyme activity of CPB (LmCPB2.8ΔCTE) by the peptide [10] was 98%.

B1: temporin peptide TSHa (peptide)
peptide: FLSGIVGMLGKLF-NH2
In the case of B1, the IC50 of inhibition of the enzyme activity of CPB (LmCPB2.8ΔCTE) [10] is reported as 9200 nM and the Inhibitory Activity at 20 μmol L^−1 (%): inhibition of the enzyme activity of CPB (LmCPB2.8ΔCTE) by the peptide [10] is reported as 94.2%.
